Patent US10525103B2, “Combined use of a vector encoding a modified receptor and its exogenous agonist in the treatment of seizures” (UCL BUSINESS LTD, priority 2014, dated 2020)
Read-outs that look alike come from different tables or passages of the source.

Assays:
[1] = cited from earlier work
hM4Di [2] = target: T1, hM4Di (Homo sapiens, UniProt P08173, A203G/Y113C); parameters: host or cells: rat (Sprague-Dawley) primary motor cortex neurons transduced in vivo with AAV5, Camk2a promoter; settings: in vivo
T1 sequence (P08173 1-479 Y113C/A203G): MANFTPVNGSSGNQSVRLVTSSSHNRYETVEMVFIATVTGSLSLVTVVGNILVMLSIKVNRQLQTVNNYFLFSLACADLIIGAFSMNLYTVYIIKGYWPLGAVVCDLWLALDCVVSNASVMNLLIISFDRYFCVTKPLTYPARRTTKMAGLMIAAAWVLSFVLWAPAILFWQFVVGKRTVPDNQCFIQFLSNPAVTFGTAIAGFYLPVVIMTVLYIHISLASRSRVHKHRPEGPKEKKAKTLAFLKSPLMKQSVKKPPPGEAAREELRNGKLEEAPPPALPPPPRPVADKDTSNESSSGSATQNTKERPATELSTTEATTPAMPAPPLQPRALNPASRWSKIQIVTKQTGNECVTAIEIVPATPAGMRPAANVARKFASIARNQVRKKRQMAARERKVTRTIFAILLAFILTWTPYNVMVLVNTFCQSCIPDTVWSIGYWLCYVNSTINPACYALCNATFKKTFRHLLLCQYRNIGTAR

hM4Di [3] = target: T1, hM4Di; assay: Overview of hM4Di/CNO treatment in in vivo models of focal epilepsy
hM4Di [4] = target: T1, hM4Di; type: in vivo; parameters: host or cells: rat (Sprague-Dawley) primary motor cortex neurons transduced in vivo with AAV5, Camk2a promoter
[5] = tested on: human muscarinic acetylcholine receptors mutated to DREADDs; settings: cited from earlier work
[6] = human, in vivo; cited from earlier work
hM4Di [7] = target: T1, hM4Di; type: in vivo; parameters: host or cells: rat (Sprague-Dawley) primary motor cortex neurons transduced in vivo with AAV5, Camk2a promoter; settings: tetanus toxin model; CNO 1 mg/kg i.p. twice at 2-hour interval, 3.5 hour window, vs vehicle; P=0.028 Wilcoxon
hM3Dq = hM3Dq (Homo sapiens, UniProt P20309, A239G/Y149C); settings: cited from earlier work
hM3Dq, sequence (P20309 whole entry Y149C/A239G): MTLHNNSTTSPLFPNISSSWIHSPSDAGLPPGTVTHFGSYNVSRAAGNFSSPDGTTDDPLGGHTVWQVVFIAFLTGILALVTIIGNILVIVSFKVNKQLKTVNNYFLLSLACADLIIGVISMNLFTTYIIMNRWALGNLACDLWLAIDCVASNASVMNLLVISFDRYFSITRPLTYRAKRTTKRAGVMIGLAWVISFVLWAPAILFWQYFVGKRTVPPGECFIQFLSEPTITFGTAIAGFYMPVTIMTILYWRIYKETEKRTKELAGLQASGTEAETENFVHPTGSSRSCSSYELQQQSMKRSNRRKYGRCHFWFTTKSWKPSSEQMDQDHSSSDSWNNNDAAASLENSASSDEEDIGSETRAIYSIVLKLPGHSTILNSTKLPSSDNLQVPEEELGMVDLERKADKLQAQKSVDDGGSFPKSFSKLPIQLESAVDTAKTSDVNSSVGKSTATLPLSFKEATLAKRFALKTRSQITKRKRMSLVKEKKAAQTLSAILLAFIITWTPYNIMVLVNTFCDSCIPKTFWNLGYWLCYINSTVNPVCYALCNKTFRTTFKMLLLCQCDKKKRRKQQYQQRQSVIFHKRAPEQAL

Compound | duration of effect on neurons transduced with hM4Di or its excitatory analog [1] | time to full clearance ([1]; rat, in vivo) | electrographic and motor convulsions (hM4Di [2]) | mean 4-14 Hz power (hM4Di [2]) | mean frequency of negative deflections in the EEG (hM4Di [2]) | number of IF runs that correlate with severe motor seizures (hM4Di [2]) | pilocarpine-triggered seizures (hM4Di [2]) | time to significant reduction in seizure severity after CNO administration (hM4Di [2]) | duration of seizure suppression / CNO present in the brain (hM4Di [3]; following a single intraperitoneal injection) | tolerability of the treatment (hM4Di [3]; hM4Di expression plus systemic CNO) | time to significant reduction in seizure severity after CNO administration (hM4Di [4]; picrotoxin (FIG. 2e)) | attenuation of IF activity (hM4Di [4]; picrotoxin, IF activity correlated with more severe motor seizures) | electrographic discharges (hM4Di [4]; rats with hM4Di AAV in M1, CNO i.p. immediately after focal picrotoxin, vs vehicle) | activation of DREADD receptors [5] | half-life [6] | coastline (hM4Di [7]) | frequency of epileptiform bursts (hM4Di [7]) | high-frequency power (hM4Di [7]) | binding to hM3Dq (hM3Dq)
C[N+]1([O-])CCN(C2=Nc3cc(Cl)ccc3Nc3ccccc32)CC1 [CNO, clozapine-N-oxide] | at least 90 minutes | ≤ 12 h | substantially reduced | significant decrease | significant decrease | significant decrease | profoundly suppressed | ≤ 10 min | 45 to 60 min | well tolerated | ≤ 10 min | especially marked | attenuated | readily activated | 7 to 8 h | significantly attenuated | significantly attenuated | significantly attenuated | –
CN1CCN(C2=Nc3ccccc3Cc3ccccc32)CC1 [perlapine] | – | – | – | – | – | – | – | – | – | – | – | – | – | – | – | – | – | – | binds
